In patent publication US6569456B2, “Osmotic device containing diltiazem and an ACE inhibitor or diuretic” (priority 2000, dated 2003):

Assay: separate study of diltiazem half-life
Settings: in vivo
Source text: The delayed release of the diltiazem causes a delay in the onset of diltiazem build-up in the plasma. Accordingly, onset of the side effects (adverse events) associated with diltiazem therapy have a delayed onset and a patient taking the medication before a rest period should not experience any difficulty in falling asleep.

COc1ccc([C@@H]2Sc3ccccc3N(CCN(C)C)C(=O)[C@@H]2OC(C)=O)cc1 [diltiazem]
half-life: ~8.5 h
